Experimental data as given in ChEMBL document CHEMBL4371054, “Dual inhibition of Kif15 by oxindole and quinazolinedione chemical probes” (Bioorg Med Chem Lett, 2019).
Active and inactive are the calls of the source. The calls are words filed in the database; no cut-off is given here.

What was measured:
[1] = molecular target: T1, Kinesin-like protein KIF15 (Homo sapiens) (UniProt Q9NS87); assay: Inhibition of recombinant His6-tagged Kif15 (N700 residues) (unknown origin) expressed in HeLa cells assessed as reduction in Alexa-594 labelled microtubule gliding at 750 nM measured every 2 secs for 20 secs by epifluorescence microscopic analysis (reference value: 1%); type: cell-based
T1 sequence (whole entry): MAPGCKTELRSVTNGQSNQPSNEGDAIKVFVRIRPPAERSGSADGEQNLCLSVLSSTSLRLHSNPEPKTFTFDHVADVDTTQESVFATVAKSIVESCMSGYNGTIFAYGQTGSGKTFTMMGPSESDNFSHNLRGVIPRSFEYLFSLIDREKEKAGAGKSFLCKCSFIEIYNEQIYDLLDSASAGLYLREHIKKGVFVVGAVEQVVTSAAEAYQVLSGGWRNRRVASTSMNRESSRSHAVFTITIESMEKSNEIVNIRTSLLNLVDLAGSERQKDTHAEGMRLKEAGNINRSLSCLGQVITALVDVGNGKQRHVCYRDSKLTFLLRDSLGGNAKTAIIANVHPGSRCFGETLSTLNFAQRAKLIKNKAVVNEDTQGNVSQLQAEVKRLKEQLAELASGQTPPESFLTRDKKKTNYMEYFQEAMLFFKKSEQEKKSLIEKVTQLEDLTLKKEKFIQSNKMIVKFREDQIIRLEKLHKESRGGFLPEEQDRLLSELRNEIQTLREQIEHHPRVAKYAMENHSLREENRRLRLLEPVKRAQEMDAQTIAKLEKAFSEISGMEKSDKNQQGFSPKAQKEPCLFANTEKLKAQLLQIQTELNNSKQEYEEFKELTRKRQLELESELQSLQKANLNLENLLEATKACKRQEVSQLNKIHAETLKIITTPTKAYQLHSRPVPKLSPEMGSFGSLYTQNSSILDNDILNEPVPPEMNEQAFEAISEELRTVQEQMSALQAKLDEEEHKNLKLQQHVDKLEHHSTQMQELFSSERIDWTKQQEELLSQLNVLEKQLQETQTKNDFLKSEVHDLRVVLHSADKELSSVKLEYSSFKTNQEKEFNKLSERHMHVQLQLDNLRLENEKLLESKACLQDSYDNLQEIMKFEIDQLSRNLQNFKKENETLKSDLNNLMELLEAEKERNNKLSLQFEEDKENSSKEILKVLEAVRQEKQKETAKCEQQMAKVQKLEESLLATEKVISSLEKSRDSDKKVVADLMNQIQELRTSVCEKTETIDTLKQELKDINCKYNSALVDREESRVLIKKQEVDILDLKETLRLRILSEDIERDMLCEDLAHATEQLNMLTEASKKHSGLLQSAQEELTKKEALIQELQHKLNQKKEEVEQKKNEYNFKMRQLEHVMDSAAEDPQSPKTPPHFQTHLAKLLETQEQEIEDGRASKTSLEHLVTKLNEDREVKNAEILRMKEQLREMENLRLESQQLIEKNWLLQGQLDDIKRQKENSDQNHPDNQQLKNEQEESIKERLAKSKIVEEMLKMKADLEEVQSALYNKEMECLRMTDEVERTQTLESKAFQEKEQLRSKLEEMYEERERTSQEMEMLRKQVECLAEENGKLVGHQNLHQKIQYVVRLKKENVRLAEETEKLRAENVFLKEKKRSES

[2] = molecular target: T1, Kinesin-like protein KIF15 (Homo sapiens); assay: Inhibition of Kif15 in TP53-deficient human RPE1 cells assessed as reduction in spindle-bound Kif15 level at 25 uM after 24 hrs by Hoechst 33342 staining based immunofluorescence microscopic analysis relative to control
[3] = molecular target: T2, Kinesin-like protein KIF15 (Homo sapiens, UniProt Q9NS87); assay: (§1) Inhibition of recombinant His6-tagged Kif15 (N700 residues) (unknown origin) expressed in HeLa cells assessed as reduction in Alexa-594 labelled microtubule gliding measured every 2 secs for 20 secs by epifluorescence microscopic analysis; type: cell-based
T2 sequence (Q9NS87 whole entry): T1 sequence (whole entry)

[4] = molecular target: T1, Kinesin-like protein KIF15 (Homo sapiens); assay: Inhibition of Kif15 in TP53-deficient human RPE1 cells assessed as reduction in Kif15 level at 25 uM after 24 hrs by Western blot analysis relative to control
[5] = molecular target: T1, Kinesin-like protein KIF15 (Homo sapiens); assay: ATP competitive inhibition of recombinant His6-tagged Kif15 ATPase activity (N700 residues) (unknown origin) expressed in HeLa cells at 5 uM using microtubule as substrate preincubated for 30 mins followed by varying levels of ATP addition by double reciprocal Lineweaver-Burk plot analysis
[6] = molecular target: T1, Kinesin-like protein KIF15 (Homo sapiens); assay: Inhibition of Kif15 in K51-resistant human KIRC1 cells assessed as cells with monopolar spindles at 25 uM after 24 hrs by Hoechst 33342 staining based immunofluorescence microscopic analysis (reference value: 43 to 49%); parameters: scale not given: the % may be the effect or the level left
[7] = molecular target: T1, Kinesin-like protein KIF15 (Homo sapiens); assay: Inhibition of Kif15 in TP53-deficient human RPE1 cells assessed as cells with bipolar pre-anaphase microtubule structure at 25 uM after 24 hrs by Hoechst 33342 staining based immunofluorescence microscopic analysis (reference value: 90 to 94%); parameters: scale not given: the % may be the effect or the level left
[8] = molecular target: T1, Kinesin-like protein KIF15 (Homo sapiens); assay: Inhibition of Kif15 in TP53-deficient human RPE1 cells assessed as effect on spindle length at 25 uM after 24 hrs by Hoechst 33342 staining based immunofluorescence microscopic analysis (reference value: 11.4 +/- 0.2 um)
[9] = molecular target: T2, Kinesin-like protein KIF15; assay: Inhibition of recombinant C-terminal truncated His6-tagged Kif15 (N700 residues) (unknown origin) expressed in Escherichia coli BL21 (DE3) assessed as reduction in microtubule gliding measured up to 2 mins
[10] = molecular target: T1, Kinesin-like protein KIF15 (Homo sapiens); assay: as §1, with “Reversible inhibition” for “Inhibition”, “gliding at 10 uM treated for 1 min followed by compound washout and” for “gliding”, “1 min” for “20 secs”; type: cell-based
[11] = molecular target: T1, Kinesin-like protein KIF15 (Homo sapiens); assay: Inhibition of recombinant His6-tagged Kif15 ATPase activity (N420 residues) (unknown origin) expressed in HeLa cells at 10 uM using microtubule as substrate preincubated for 15 mins followed by ATP addition and measured after 20 mins by ADP-Glo luminescence assay relative to control
[12] = molecular target: T2, Kinesin-like protein KIF15; assay: Inhibition of recombinant His6-tagged Kif15 ATPase activity (N420 residues) (unknown origin) expressed in HeLa cells using microtubule as substrate preincubated for 15 mins followed by ATP addition and measured after 20 mins by ADP-Glo luminescence assay

SMILES	inhibition [1]	other results
O=C1Nc2ccc(C(=O)c3ccco3)cc2/C1=C/c1ccc(O)nc1	26.5%	–
O=C1Nc2ccc(-c3ccccn3)cc2/C1=C/c1cc(Cl)c(O)c(Cl)c1	7.3%	–
CCOC(=O)c1sc(NC(=O)[C@H](C(C)C)n2c(=O)[nH]c3ccccc3c2=O)nc1C	–	inhibition [2]: inactive; IC50 [3]: 200 nM; inhibition [4]: 15%; inhibition [5]: Active; Activity [6]: 84%; Activity [7]: 96%; Activity [8]: 9.9 µm; IC50 [9]: 1720 nM; inhibition [10]: Active
O=C1Nc2ccc(C(=O)c3ccco3)cc2/C1=C/c1ccnc(Cl)c1	15.8%	–
COc1ccc(/C=C2\C(=O)Nc3ccc(C(=O)c4ccco4)cc32)cc1Br	2.3%	–
O=C1Nc2ccc(-c3cccc(F)c3)cc2/C1=C/c1cc(Cl)c(O)c(Cl)c1	-5.8%	–
O=C1Nc2ccc(C(=O)c3ccco3)cc2/C1=C/c1cc(F)c(O)c(Br)c1	38%	–
O=C1Nc2ccc(C(=O)c3ccco3)cc2/C1=C/c1cc(F)c(O)c(F)c1	21%	–
O=C1Nc2ccc(C(=O)N3CCCC3)cc2/C1=C/c1cc(Cl)c(O)c(Cl)c1	-10%	–
O=C1Nc2ccc(C(=O)c3ccco3)cc2/C1=C/c1ccc(O)c(Br)c1	23%	–
O=C1Nc2ccc(C(=O)c3ccco3)cc2/C1=C/c1cc(Br)cc(Br)c1	16%	–
Cc1cc(/C=C2\C(=O)Nc3ccc(C(=O)c4ccco4)cc32)cc(C)c1O	9%	–
O=C1Nc2ccc(C(=O)c3ccco3)cc2/C1=C/c1cccc(O)c1	8.21%	–
O=C1Nc2ccc(C(=O)c3ccco3)cc2/C1=C/c1ccc(O)c(C(F)(F)F)c1	9.5%	–
CN(C)C(=O)c1ccc2c(c1)/C(=C/c1cc(Cl)c(O)c(Cl)c1)C(=O)N2	15.3%	–
O=C1Nc2ccc(C(=O)c3ccco3)cc2/C1=C/c1ccncc1	0.8%	–
O=C1Nc2ccc(-c3ccco3)cc2/C1=C/c1cc(Cl)c(O)c(Cl)c1	33%	–
O=C1Nc2ccc(I)cc2/C1=C/c1cc(Br)c(O)c(Br)c1	–	inhibition [11]: 90%; IC50 [12]: 2500 nM
O=C1Nc2ccc(C(=O)c3ccco3)cc2/C1=C/c1cc(Cl)c(O)c(Br)c1	62%	–
O=C1Nc2ccc(I)cc2/C1=C/c1cc(F)c(O)c(F)c1	4.8%	–
O=C1Nc2ccc(C(=O)c3ccco3)cc2/C1=C/c1cc(I)c(O)c(I)c1	26%	–
O=C1Nc2ccc(C(=O)c3ccco3)cc2/C1=C/c1cc(Br)c(O)c(Br)c1	65%	–
O=C1Nc2ccc(C(=O)c3ccco3)cc2/C1=C/c1ccc(Br)c(O)c1	-5.6%	–
O=C1Nc2ccc(I)cc2/C1=C/c1cc(Cl)c(O)c(Cl)c1	15%	–
COc1cc(/C=C2\C(=O)Nc3ccc(C(=O)c4ccco4)cc32)cc(Cl)c1O	-3.5%	–
